Assay results reported in ChEMBL document CHEMBL1201862, “PubChem BioAssay data set” (2004).
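All cell lines were grown in 96-well plates and treated with compound for 48 hours. Here, GI50 denotes the concentration required for 50% inhibition of growth.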 Active and inactive are the calls of the source. Cut-off read from the data, not from the text of the source: active = GI50 up to about 1.1 µM and inactive = higher.

Legend:
Assay in all cases: NCI tumour cell line growth inhibition, 48 h
HCT-116 = test system: HCT-116
ACHN = test system: ACHN
SK-MEL-28 = test system: SK-MEL-28
LXFL 529 = test system: LXFL 529
SK-MEL-5 = test system: SK-MEL-5
SK-MEL-2 = test system: SK-MEL-2
HCT-15 = test system: HCT-15
SNB-75 = test system: SNB-75
HOP-92 = test system: HOP-92
SW-620 = test system: SW-620
SN12C = test system: SN12C
OVCAR-8 = test system: OVCAR-8
COLO 205 = test system: COLO 205
XF498 = test system: XF498
RXF 631 = test system: RXF 631
DLD-1 = test system: DLD-1
OVCAR-4 = test system: OVCAR-4
TK-10 = test system: TK-10
SNB-78 = test system: SNB-78
OVCAR-5 = test system: OVCAR-5
HOP-18 = test system: HOP-18
A549 = test system: A549
HT-29 = test system: HT-29
M14 = test system: M14
SNB-19 = test system: SNB-19
SK-OV-3 = test system: SK-OV-3
K562 = test system: K562
RXF 393 = test system: RXF 393
SR = test system: SR
SF-295 = test system: SF-295
IGROV-1 = test system: IGROV-1
NCI-H23 = test system: NCI-H23
SF-539 = test system: SF-539
OVCAR-3 = test system: OVCAR-3
NCI-H522 = test system: NCI-H522
SF-268 = test system: SF-268
U-251 = test system: U-251
LOX IMVI = test system: LOX IMVI
786-0 = test system: 786-0
UACC-62 = test system: UACC-62
UACC-257 = test system: UACC-257
HL-60 = test system: HL-60
MOLT-4 = test system: MOLT-4
HOP-62 = test system: HOP-62
DMS-273 = test system: DMS-273
Malme-3M = test system: Malme-3M
KM-20L2 = test system: KM-20L2
CAKI-1 = test system: CAKI-1
KM12 = test system: KM12
CCRF-CEM = test system: CCRF-CEM
DMS-114 = test system: DMS-114
NCI-H460 = test system: NCI-H460
UO-31 = test system: UO-31
EKVX = test system: EKVX
M19-MEL = test system: M19-MEL

For `COC(OC)c1cccnc1C`, which GI50 (HCT-116) is on record?
The GI50 was > 100 µM (inactive).

What about the GI50 (ACHN) of the same molecule?
The GI50 was > 100 µM (inactive).

What about the GI50 (SK-MEL-28) of the same molecule?
The GI50 was > 100 µM (inactive).

What about the GI50 (LXFL 529) of the same molecule?
The GI50 was > 100 µM (inactive).

What about the GI50 (SK-MEL-5) of the same molecule?
The GI50 was > 100 µM (inactive).

And the GI50 (SK-MEL-2)?
Its GI50 is > 100 µM (inactive).

And the GI50 (HCT-15)?
Its GI50 is greater than 100 µM.

And the GI50 (SNB-75)?
Its GI50 is > 100 µM (inactive).

And the GI50 (HOP-92)?
Its GI50 is > 100 µM (inactive).

What about the GI50 (SW-620) of the same molecule?
The GI50 was > 100 µM (inactive).

And the GI50 (SN12C)?
Its GI50 is > 100 µM (inactive).

What about the GI50 (OVCAR-8) of the same molecule?
The GI50 was > 100 µM (inactive).

And the GI50 (COLO 205)?
The GI50 was > 100 µM (inactive).

What about the GI50 (XF498) of the same molecule?
The GI50 was > 100 µM (inactive).

And the GI50 (RXF 631)?
Its GI50 is > 100 µM (inactive).

And the GI50 (DLD-1)?
The GI50 was > 100 µM (inactive).

What about the GI50 (OVCAR-4) of the same molecule?
Its GI50 is > 100 µM (inactive).

And the GI50 (TK-10)?
Its GI50 is > 100 µM (inactive).

And the GI50 (SNB-78)?
The GI50 was > 100 µM (inactive).

What about the GI50 (OVCAR-5) of the same molecule?
Its GI50 is > 100 µM (inactive).

And the GI50 (HOP-18)?
The GI50 was > 100 µM (inactive).

And the GI50 (A549)?
The GI50 was > 100 µM (inactive).

And the GI50 (HT-29)?
The GI50 was > 100 µM (inactive).

What about the GI50 (M14) of the same molecule?
The GI50 was > 100 µM (inactive).

What about the GI50 (SNB-19) of the same molecule?
The GI50 was > 100 µM (inactive).

What about the GI50 (SK-OV-3) of the same molecule?
Its GI50 is > 100 µM (inactive).

And the GI50 (K562)?
Its GI50 is > 100 µM (inactive).

And the GI50 (RXF 393)?
The GI50 was > 100 µM (inactive).

What about the GI50 (SR) of the same molecule?
The GI50 was > 100 µM (inactive).

And the GI50 (SF-295)?
The GI50 was > 100 µM (inactive).

What about the GI50 (IGROV-1) of the same molecule?
The GI50 was > 100 µM (inactive).

And the GI50 (NCI-H23)?
The GI50 was > 100 µM (inactive).

And the GI50 (SF-539)?
Its GI50 is > 100 µM (inactive).

And the GI50 (OVCAR-3)?
The GI50 was > 100 µM (inactive).

What about the GI50 (NCI-H522) of the same molecule?
The GI50 was > 100 µM (inactive).

And the GI50 (SF-268)?
Its GI50 is > 100 µM (inactive).

And the GI50 (U-251)?
The GI50 was > 100 µM (inactive).

What about the GI50 (LOX IMVI) of the same molecule?
Its GI50 is > 100 µM (inactive).

And the GI50 (786-0)?
The GI50 was > 100 µM (inactive).

What about the GI50 (UACC-62) of the same molecule?
Its GI50 is > 100 µM (inactive).

What about the GI50 (UACC-257) of the same molecule?
The GI50 was > 100 µM (inactive).

And the GI50 (HL-60)?
The GI50 was > 100 µM (inactive).

What about the GI50 (MOLT-4) of the same molecule?
Its GI50 is > 100 µM (inactive).

What about the GI50 (HOP-62) of the same molecule?
Its GI50 is > 100 µM (inactive).

What about the GI50 (DMS-273) of the same molecule?
Its GI50 is > 100 µM (inactive).

And the GI50 (Malme-3M)?
Its GI50 is > 100 µM (inactive).

What about the GI50 (KM-20L2) of the same molecule?
Its GI50 is > 100 µM (inactive).

And the GI50 (CAKI-1)?
The GI50 was > 100 µM (inactive).

What about the GI50 (KM12) of the same molecule?
Its GI50 is > 100 µM (inactive).

What about the GI50 (CCRF-CEM) of the same molecule?
The GI50 was > 100 µM (inactive).

And the GI50 (DMS-114)?
Its GI50 is > 100 µM (inactive).

And the GI50 (NCI-H460)?
The GI50 was > 100 µM (inactive).

What about the GI50 (UO-31) of the same molecule?
Its GI50 is > 100 µM (inactive).

And the GI50 (EKVX)?
The GI50 was > 100 µM (inactive).

And the GI50 (M19-MEL)?
Its GI50 is > 100 µM (inactive).
